molecular target: T1, VEGFR/KDR (Homo sapiens, UniProt P35968); assay: VEGFR/KDR kinase inhibition, DELFIA assay; assay type: biochemical; conditions: ATP 0.6 uM (2x Km), enzyme 5 nM
T1 construct: made in house; host or cells: Sf9 cells (Spodoptera frugiperda), baculovirus
Summary of the method: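 DELFIA time-resolved fluorescence readout using Europium-tagged anti-phosphotyrosine antibody after EDTA stop. Kinase reaction on plate-bound poly(Glu4,Tyr) ran 10-30 min at 30° C with 5 nM enzyme and 0.6 uM ATP (2× Km), following 4 min on-ice pre-incubation with compound; IC50 over a concentration range.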

T1 sequence (P35968 806-1356): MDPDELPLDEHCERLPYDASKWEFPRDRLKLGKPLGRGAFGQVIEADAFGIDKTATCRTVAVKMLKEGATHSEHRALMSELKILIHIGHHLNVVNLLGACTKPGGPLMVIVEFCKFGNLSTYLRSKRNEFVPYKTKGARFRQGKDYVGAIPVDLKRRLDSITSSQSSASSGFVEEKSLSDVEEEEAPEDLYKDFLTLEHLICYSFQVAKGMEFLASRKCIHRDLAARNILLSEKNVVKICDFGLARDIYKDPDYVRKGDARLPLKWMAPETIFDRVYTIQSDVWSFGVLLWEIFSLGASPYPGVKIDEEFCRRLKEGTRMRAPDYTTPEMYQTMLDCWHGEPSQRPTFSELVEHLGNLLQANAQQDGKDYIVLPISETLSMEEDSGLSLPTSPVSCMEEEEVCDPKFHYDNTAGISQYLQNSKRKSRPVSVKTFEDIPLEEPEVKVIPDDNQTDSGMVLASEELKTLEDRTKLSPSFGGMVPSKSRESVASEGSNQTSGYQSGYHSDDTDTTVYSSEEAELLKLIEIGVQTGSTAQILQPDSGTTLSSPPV

Row | SMILES | IC50 [nM]
1 | CN(C)CCn1cc(-c2cc3nccc(Oc4ccc(NC(=O)NC5CC5)cc4F)c3s2)nn1 [Compound 367] | 50 to 100
2 | CC(C)(C)C(=O)O[C@H]1CCN(C(=O)c2cc3nccc(Oc4ccc(NC(=O)NC5CC5)cc4F)c3s2)C1 [Compound 448] | 100 to 250
3 | O=C(Nc1ccc(Oc2ccnc3cc(-c4ccc(CN5CCN(C(=O)CCCC[C@H]6SC[C@H]7NC(=O)N[C@H]76)CC5)cn4)sc23)c(F)c1)NC1CC1 [Compound 535] | < 50
4 | COCCOCCOCCOCCN(C)C1CCN(Cc2ccc(-c3cc4nccc(Oc5ccc(NC(=O)NC6CC6)cc5F)c4s3)nc2)CC1 [Compound 418] | < 50
5 | COCCN(Cc1ccc(-c2cc3nccc(Oc4ccc(NC(=O)NC5CC5)cc4F)c3s2)nc1)C(=O)N(C)C [Compound 4, N-[3-((6-(7-(4-(3-cyclopropylureido)-2-fluorophenoxy)thieno[3,2-b]pyridin-2-yl)pyridin-3-yl)methyl)]-N-(1,1-dimethyl)-N-[3-(2-methoxyethyl)]urea] | < 50
6 | O=C(O)CC1CCN(Cc2ccc(-c3cc4nccc(Oc5ccc(NC(=O)NC6CC6)cc5F)c4s3)nc2)CC1 [Compound 63, 2-(l-((6-(7-(4-(3-cyclopropylureido)-2-fluorophenoxy)thieno[3,2-b]pyridin-2-yl)pyridin-3-yl)methyl)piperidin-4-yl)acetic acid] | < 50
7 | O=C(Nc1ccc(Oc2ccnc3cc(C4=CCN(CCCN5CCOCC5)CC4)sc23)c(F)c1)NC1CC1 [Compound 276, 1-cyclopropyl-3-(3-fluoro-4-(2-(1-(3-morpholinopropyl)-1,2,3,6-tetrahydropyridin-4-yl)thieno[3,2-b]pyridin-7-yloxy)phenyl)urea] | 50 to 100
8 | COCCN1CCN(Cc2ccc(-c3cc4nccc(Oc5ccc(NC(=O)NC6CC6)cc5F)c4s3)nc2)CC1 [Compound 56] | < 50
9 | CC(C)NC(=O)NC1CCN(Cc2ccc(-c3cc4nccc(Oc5ccc(NC(=O)NC6CC6)cc5F)c4s3)nc2)CC1 [Compound 355] | < 50
10 | CC(=O)N(Cc1ccc(-c2cc3nccc(Oc4ccc(NC(=O)NC5CC5)cc4F)c3s2)nc1)C1CCNCC1 [Compound 609, N-((6-(7-(4-(3-Cyclopropylureido)-2-fluorophenoxy)thieno[3,2-b]pyridin-2-yl)pyridin-3-yl)methyl)-N-(piperidin-4-yl)acetamide] | < 50
11 | O=C(Nc1ccc(Oc2ccnc3cc(C(=O)N4CCC[C@@H](O)C4)sc23)c(F)c1)NC1CC1 [Compound 463, (R)-1-cyclopropyl-3-(3-fluoro-4-(2-(3-hydroxypiperidine-1-carbonyl)thieno-[3,2-b]pyridine-7-yloxy)phenyl)urea] | 100 to 250
12 | COCCNCCc1ccc(-c2cc3nccc(Oc4ccc(NC(=O)C5(C(=O)Nc6ccc(F)cc6)CC5)cc4F)c3s2)nc1 [Compound 185, N-(3-fluoro-4-(2-(5-(2-(2-methoxyethylamino)ethyl)pyridin-2-yl)thieno[3,2-b]pyridin-7-yloxy)phenyl)-N-(4-fluorophenyl)cyclopropane-1,1-dicarboxamide] | < 50
13 | C[C@H]1CN(Cc2ccc(-c3cc4nccc(Oc5ccc(NC(=O)NC6CC6)cc5F)c4s3)nc2)CCN1CCO [Compound 582, (S)-1-cyclopropyl-3-(3-fluoro-4-(2-(5-((4-(2-hydroxyethyl)-3-methylpiperazin-1-yl)methyl)pyridin-2-yl)thieno[3,2-b]pyridin-7-yloxy)phenyl)urea] | < 50
14 | COCCN(Cc1ccc(-c2cc3nccc(Oc4ccc(NC(=O)NC5CC5)cc4F)c3s2)cc1)C(C)=O [Compound 114, N-(4-(7-(4-(3-cyclopropylureido)-2-fluorophenoxy)thieno[3,2-b]pyridin-2-yl)benzyl)-N-(2-methoxyethyl)acetamide] | < 50
15 | O=C(Nc1ccc(Oc2ccnc3cc(-c4ccc(C(=O)N5CCCC5)cc4)sc23)c(F)c1)NC1CC1 [Compound 129, 1-cyclopropyl-3-(3-fluoro-4-(2-(4-(pyrrolidine-1-carbonyl)phenyl)thieno[3,2-b]pyridin-7-yloxy)phenyl)urea] | < 50
16 | CC(=O)O[C@@H]1CCN(C(=O)c2cc3nccc(Oc4ccc(NC(=O)NC5CC5)cc4F)c3s2)C1 [Compound 467, (R)-1-(7-(4-(3-cyclopropylureido)-2-fluorophenoxy)thieno[3,2-b]pyridine-2-carbonyl)pyrrolidin-3-yl acetate] | < 50
17 | COCCOCCOCC(=O)N1CCN(Cc2ccc(-c3cc4nccc(Oc5ccc(NC(=O)NC6CC6)cc5F)c4s3)nc2)CC1 [Compound 588, 1-Cyclopropyl-3-(3-fluoro-4-(2-(5-((4-(2-(2-(2-methoxyethoxy)ethoxy)acetyl)piperazin-1-yl)methyl)pyridin-2-yl)thieno[3,2-b]pyridin-7-yloxy)phenyl)urea] | < 50
18 | CCNC(=O)NC1CN(Cc2ccc(-c3cc4nccc(Oc5ccc(NC(=O)NC6CC6)cc5F)c4s3)nc2)C1 [Compound 408] | < 50
19 | CCNC(=O)N(CCOC)Cc1cnc(-c2cc3nccc(Oc4ccc(NC(=O)NC(C)C)cc4F)c3s2)n1C [Compound 161-A, 1-((2-(7-(4-isopropylaminocarbonylamino-2-fluorophenoxy)thieno[3,2-b]pyridin-2-yl)-1-methyl-1H-imidazol-5-yl)methyl)-3-ethyl-1-(2-methoxyethyl)urea] | < 50
20 | CCOC(=O)C1CCCN(C(=O)c2cc3nccc(Oc4ccc(NC(=O)NC5CC5)cc4F)c3s2)C1 (stereo not drawn) [Compound 458] | 50 to 100
21 | CN1CCN(C(=O)CCn2cc(-c3cc4nccc(Oc5ccc(NC(=O)NC6CC6)cc5F)c4s3)nn2)CC1 [Compound 378] | < 50
22 | O=C(Nc1ccc(Oc2ccnc3cc(-c4cnn(CCOC(=O)NC5CC5)c4)sc23)c(F)c1)NC1CC1 [Compound 157, 2-(4-(7-(4-(3-cyclopropylureido)-2-fluorophenoxy)thieno[3,2-b]pyridin-2-yl)-1H-pyrazol-1-yl)ethyl cyclopropylcarbamate] | < 50

Now from value to compound:

Row | IC50 [nM] | SMILES
23 | < 50 | O=C(CCO)NC1CCN(Cc2ccc(-c3cc4nccc(Oc5ccc(NC(=O)NC6CC6)cc5F)c4s3)nc2)CC1 [Compound 349]
24 | < 50 | O=C1CN(Cc2ccc(-c3cc4nccc(Oc5ccc(NC(=O)NC6CC6)cc5F)c4s3)nc2)CCN1 [Compound 67, l-cyclopropyl-3-(3-fluoro-4-(2-(5-((3-oxopiperazin-1-yl)methyl)pyridin-2-yl)thieno[3,2-b]-pyridin-7-yloxy)phenyl)urea]
25 | < 50 | O=C(O)CCCCCCC(=O)N1CCN(Cc2ccc(-c3cc4nccc(Oc5ccc(NC(=O)NC6CC6)cc5F)c4s3)nc2)CC1 [Compound 544]
26 | < 50 | O=C(Nc1ccc(Oc2ccnc3cc(-c4ccc(CN5CCOCCOCCOCC5)cn4)sc23)c(F)c1)NC1CC1 [Compound 532]
27 | < 50 | COCCN(Cc1cnc(-c2cc3nccc(Oc4ccc(NC(=O)NC5CC5)cc4F)c3s2)n1C)C(=O)NC1CC1 [Compound 161, 1-((2-(7-(2-fluoro-4-cyclopropylaminocarbonylaminophenoxy)thieno[3,2-b]pyridin-2-yl)-1-methyl-1H-imidazol-5-yl)methyl)-3-cyclopropyl-1-(2-methoxyethyl)urea]
28 | < 50 | COCCN(CCOC)Cc1ccc(-c2cc3nccc(Oc4ccc(NC(=O)NC5CC5)cc4F)c3s2)nc1 [Compound 50, 1-(4-(2-(5-((bis(2-methoxyethyl)amino)methyl)pyridin-2-yl)thieno[3,2-b]-pyridin-7-yloxy)-3-fluorophenyl)-3-cyclopropylurea]
29 | < 50 | O=C(Nc1ccc(Oc2ccnc3cc(-c4ccc(CN5CCN(CCn6ccnc6)CC5)cn4)sc23)c(F)c1)NC1CC1 [Compound 54-G, 1-(4-(2-(5-((4-(2-(1H-imidazol-1-yl)ethyl)piperazin-l-yl)methyl)pyridin-2-yl)thieno[3,2-b]pyridin-7-yloxy)-3-fIuorophenyl)-3-cyclopropylurea]
30 | < 50 | C[C@@H]1CN(Cc2ccc(-c3cc4nccc(Oc5ccc(NC(=O)NC6CC6)cc5F)c4s3)nc2)C[C@H](C)N1CCO [Compound 583]
31 | < 50 | CC(=O)N(CCO)Cc1ccc(-c2cc3nccc(Oc4ccc(NC(=O)NC5CC5)cc4F)c3s2)nc1 [Compound 10, N-((6-(7-(4-(3-cyclopropylureido)-2-fluorophenoxy)thieno[3,2-b]pyridin-2-yl)pyridin-3-yl)methyl)-N-(2-hydroxyethyl)acetamide]
32 | < 50 | COCCOCCOCCNC(=O)N1CCN(Cc2ccc(-c3cc4nccc(Oc5ccc(NC(=O)NC6CC6)cc5F)c4s3)nc2)CC1 [Compound 596, 4-((6-(7-(4-(3-Cyclopropylureido)-2-fluorophenoxy)thieno[3,2-b]pyridin-2-yl)pyridin-3-yl)methyl)-N-(2-(2-(2-methoxyethoxy)ethoxy)ethyl)piperazine-1-carboxamide]
33 | < 50 | COCCNCCn1cc(-c2cc3nccc(Oc4ccc(NC(=O)NC5CC5)cc4F)c3s2)cn1 [Compound 247, 1-cyclopropyl-3-(3-fluoro-4-(2-(1-(2-(2-methoxyethylamino)ethyl)-1H-pyrazol-4-yl)thieno[3,2-b]pyridin-7-yloxy)phenyl)urea]
34 | < 50 | CN(C)[C@H]1CCN(Cc2ccc(-c3cc4nccc(Oc5ccc(NC(=O)NC6CC6)cc5F)c4s3)nc2)C1 [Compound 54, (S)-1-cyclopropyl-3-(4-(2-(5-((3-(dimethylamino)pyrrolidin-1-yl)methyl)pyridin-2-yl)thieno[3,2-b]pyridin-7-yloxy)-3-fluorophenyl)urea]
35 | < 50 | COCCN(CCn1cnc(-c2cc3nccc(Oc4ccc(NC(=O)NC5CC5)cc4F)c3s2)c1)C(=O)CO [Compound 258, N-(2-(4-(7-(4-(3-cyclopropylureido)-2-fluorophenoxy)thieno[3,2-b]-pyridin-2-yl)-1H-imidazol-1-yl)ethyl)-2-hydroxy-N-(2-methoxyethyl)acetamide]
36 | < 50 | O=C(O)CNC(=O)NC1CN(Cc2ccc(-c3cc4nccc(Oc5ccc(NC(=O)NC6CC6)cc5F)c4s3)nc2)C1 [Compound 428]

— patent publication US8906852B2 (MethylGene Inc., priority 2010, dated 2014)
